In patent US11033526B2 (priority 2015, dated 2021):
Read-outs that look alike come from different tables or passages of the source. Each block holds one molecule with its values, some of them ahead of it.

What was measured:
CMVMJD135 mice [1] = conditions: cited from earlier work
[2] = system: AT3q130 animals (mutant ATXN3); test: C. elegans assay for motility defects in AT3q130 animals; assay type: in vivo; conditions: for mutant ATXN3-mediated neuronal dysfunction (locomotion defects): liquid culture, four day old animals
Procedure: C. elegans assays for motility defects and aggregation. Animals (N2, AT3 WT or AT3q130) were grown in liquid culture in a 96-well plate format, with the chemical compounds, as described above. Four day old animals were transferred from the 96-well plates onto an unseeded NGM plate (equilibrated at 20° C.). Plates were allowed to dry for 1 hour before starting the assays. Motility assays were performed at 20° C. as previously described. Motor behaviour assays were run in triplicates or quadruplicates (n=3 or 4), with a total of at least 150 animals tested per genotype and/or compound. For confocal dynamic imaging and quantification of ATXN3 aggregation, live animals were immobilized with 3 mM levamisole (Sigma, USA) and mounted on a 3% agarose pad. All images were captured on an Olympus FV1000 (Japan) or Zeiss LSM 510 (Germany) confocal microscopes, under a 60× oil (NA=1.35) or 63× water (NA=1.0) objectives. Z-series imaging was acquired for all vehicle- and compound-treated animals, using a 515/514 nm laser excitation line for YFP fusion proteins. The pinhole was adjusted to 1.0 Airy unit of optical slice, and a scan was acquired every˜0.5 μm along the Z-axis. For quantification of aggregates three parameters were measured: area of aggregates/total area; number of aggregates/total area and number of aggregates. Values shown are the mean (normalized to vehicle treated control) of eight or more animals per group, unless noted otherwise.

WT mice = test: Body weight and motor behaviour of treated WT mice; assay type: in vivo, mouse
Procedure: (§1) Transgenic mouse model and drug administration. CMVMJD135 mice were generated as described previously. DNA extraction, animal genotyping and CAG repeat size analyses were performed as previously described. The mean repeat size (±s.d.) for all mice used was 130±2. […] Only male mice were used in this study. […] Treatment was initiated at five weeks of age, one week before the expected onset of the first neurological symptoms. The trial was ended at 34 weeks of age, according to the humane endpoints established for the non-treated CMVMJD135 mice. All animal procedures were conducted in accordance with European regulations (European Union Directive 86/609/EEC). Animal facilities and the people directly involved in animal experiments (ATC, SE, ASF, SDS) were certified by the Portuguese regulatory entity-[…]. All of the protocols performed were approved by the Animal Ethics Committee of the Life and Health Sciences Research Institute, University of Minho. Behavioural assessment. […] All behavioural tests started in a pre-symptomatic stage (4 weeks) and were conducted until 30 or 34 weeks of age (FIG. 5a). Neurological tests and general health assessment were performed using the SHIRPA protocol, enriched with the hanging wire test. The dragging of the paws and the stride length were evaluated with footprinting analysis. Motor behaviour was further assessed using the balance beam walk test (12 mm square and 17 mm round beams) and the motor swimming test. All behavioural tests were performed as previously described (Silva-Fernandes, A. et al. Chronic Treatment with 17-DMAG Improves Balance and Coordination in A New Mouse Model of Machado-Joseph Disease. Neurotherapeutics (2014). Body weight was also registered for each evaluation time point.

CMVMJD135 mice [3] = test: Behavioural assessment of CMVMJD135 mice under chronic oral treatment; assay type: in vivo, mouse
Procedure: as §1, with “Neurological tests and general health assessment were performed using the SHIRPA protocol, enriched with the hanging wire test.” left out, “All behavioural tests were performed as previously described (Silva-Fernandes, A. et al. Chronic Treatment with 17-DMAG Improves Balance and Coordination in A New Mouse Model of Machado-Joseph Disease. Neurotherapeutics (2014). Body weight was also registered for each evaluation time point.” left out

Compound: CO[C@H]1/C=C\C=C(/C)C(=O)NC2=CC(=O)C(NCCN(C)C)=C(C[C@@H](C)C[C@H](OC)[C@H](O)[C@@H](C)/C=C(\C)[C@@H]1OC(N)=O)C2=O [17-DMAG]
delay of manifestation of motor swimming defects (CMVMJD135 mice [1]; CMVMJD135 mice, previous findings (Silva-Fernandes 2014)): eight
percentage of effect in motor swimming test (CMVMJD135 mice [1]; at 30 weeks, CMVMJD135, previous findings (Silva-Fernandes 2014)): 33%

Compound: O=C1CC2(CCCC2)CC(=O)N1CCCCN1CCN(c2ncccn2)CC1 [buspirone]
mutant ATXN3-mediated neuronal dysfunction (locomotion defects) [2]: ameliorated

EC50 ([2]; Caenorhabditis elegans, dose-response profile, read-out: half-maximal effective concentration (EC50), locomotion defects): 45 µM
Compound: CN(C)CCCC1(c2ccc(F)cc2)OCc2cc(C#N)ccc21 (stereo not drawn) [citalopram]
behaviour of treated WT mice versus untreated littermates (WT mice): behaved similarly
beam walk test, WT mice (WT mice; 8 mg/kg): No differences
body weight of WT mice (WT mice; 8 mg/kg): significant increase
motor swimming test, WT mice (WT mice; 8 mg/kg): No differences
body weight of WT mice (WT mice; 13 mg/kg): significant increase
delay of manifestation of motor swimming defects (CMVMJD135 mice [3]; CMVMJD135 mice): at least 20 weeks
percentage of effect in motor swimming test (CMVMJD135 mice [3]; at 30 weeks, CMVMJD135): 79%

Compound: CN1C[C@H](C(=O)N[C@]2(C)O[C@@]3(O)[C@@H]4CCCN4C(=O)[C@H](Cc4ccccc4)N3C2=O)C[C@@H]2c3cccc4[nH]cc(c34)C[C@H]21 [dihydroergotamine]
mutant ATXN3-mediated neuronal dysfunction (locomotion defects) [2]: ameliorated

Compound: CN(C)CCC[C@@]1(c2ccc(F)cc2)OCc2cc(C#N)ccc21 [escitalopram]
mutant ATXN3-mediated neuronal dysfunction (locomotion defects) [2]: beneficial effects

Compound: CN1C[C@H](CO)C=C2c3cccc4[nH]cc(c34)C[C@H]21 [lysergol]
mutant ATXN3-mediated neuronal dysfunction (locomotion defects) [2]: ameliorated

Compound: CC(C)NCC(O)COc1cccc2[nH]ccc12 (stereo not drawn) [pindolol]
mutant ATXN3-mediated neuronal dysfunction (locomotion defects) [2]: ameliorated
